In test [1] the test system is MDA-MB-231 breast cancer cell line. The experiment in a line: SRB anti-proliferative assay, MDA-MB-231. The test is classed as cell-based, human. Conditions: for IC50: Homo sapiens, MDA-MB-231, SRB assay, 48 h, mean ± S.D. from 3 separate experiments, read-out: IC50 MDA-MB-231. As for the experimental part: Cytotoxicity was assessed following the SRB colorimetric assay protocol, as reported earlier.
1. Anti-proliferative action toward human breast cell lines […]
have been obtained from American Type Culture Collection (ATCC). The cells were maintained in Dulbecco's modified Eagle's medium (DMEM) supplemented with 10% heat inactivated fetal calf serum (GIBCO), penicillin (100 U/ml) and streptomycin (100 µg/ml) at 37 °C in humidified atmosphere containing 5% CO2. Cells at a concentration of […]
The anti-proliferative activity of the tested hybrids 6a-i, 9a-f and 11a, b was measured in vitro using the Sulfo-Rhodamine-B stain (SRB) assay. Briefly, Cells were inoculated in 96-well microtiter plate (5X104 cells/ well) for 24 h before treatment with the tested compounds to allow attachment of cell to the wall of the plate. Tested compounds were dissolved in DMSO at 1 mg/ml immediately before use and diluted to the appropriate volume just before addition to the cell culture. Different concentrations of tested compounds, doxorubicin and sorafenib were added to the cells (three wells were prepared for each individual dose). Cells were incubated with the compounds for 48 h at 37°C and in atmosphere of 5% CO2. After 48 h cells were fixed, washed, and stained for 30 min with 0.4% (w/v) SRB dissolved in 1% acetic acid. Unbound dye was removed by four washes with 1% acetic acid, and attached stain was recovered with Tris-EDTA buffer.
Color intensity was measured in an ELISA reader. […]
(In SRB staining, fixed cells bind dye roughly in proportion to their protein.)

The next test concerns MCF-7 cells. Briefly: Cell cycle analysis by flow cytometry (PI). Conditions: for fold elevation in sub-G1 phase / fold increase of cells in G2/M phase: MCF-7, in comparison to the control (DMSO); for %Sub-G1 / %G2/M / %S / %G0–G1: MCF-7 cells treated at IC50, 24 h; for %Sub-G1: control 1.37; for %G2/M: control 14.73; for %S: control 27.45; for %G0–G1: control 56.45. The test is classed as cell-based, human. As for the experimental part: Most of the cytotoxic agents wield their anti-proliferative effect by arresting the cell cycle at some checkpoints. Cell cycle analysis employs flow cytometry to distinguish cells within the different cell cycle phases. […] MCF-7 cells were treated by the IC50 of the two conjugates and their impact on the cell population was recorded. […] This was accompanied by discernible escalation in the proportion of cells in the G2/M phase by 2.80- and 2.46-fold with concomitant elevation in the sub-G1 phase by 17.8 and 16.25-fold, respectively, in comparison to the control (DMSO). […]
The two examined human breast cancer cell lines (MCF-7 and Breast MDA-MB-231) have been obtained from American Type Culture Collection (ATCC). The cells were maintained in Dulbecco's modified Eagle's medium (DMEM) supplemented with 10% heat inactivated fetal calf serum (GIBCO), penicillin (100 U/ml) and streptomycin (100 µg/ml) at 37 °C in humidified atmosphere containing 5% CO2. Cells at a concentration of 0.50 x 106 were grown in a 25 cm2 flask in 5 ml of culture medium. […]
Breast cancer MCF-7 cells were treated with hybrids 6e and 6f for 24 h (at their IC50 concentration), and then cells were washed twice with ice-cold phosphate buffered saline (PBS). Subsequently, the treated cells were collected by centrifugation, fixed in ice-cold 70% (v/v) ethanol, washed with PBS, re-suspended with 100 μg/mL RNase, stained with 40 μg/mL PI, and analyzed by flow cytometry using FACS Calibur (Becton Dickinson, BD, Franklin Lakes, NJ, USA). The cell cycle distributions were calculated using CellQuest software 5.1 (Becton Dickinson).
Background: In flow cytometry, cells or beads pass a laser one at a time.

The target in the next test is CDK9 (Homo sapiens, UniProt P50750). Briefly: CDK9 kinase inhibition (Reaction Biology HotSpot). Conditions: read-out: % Enzyme Inhibitory Activity CDK9.
Chain of CDK9 (P50750 whole entry): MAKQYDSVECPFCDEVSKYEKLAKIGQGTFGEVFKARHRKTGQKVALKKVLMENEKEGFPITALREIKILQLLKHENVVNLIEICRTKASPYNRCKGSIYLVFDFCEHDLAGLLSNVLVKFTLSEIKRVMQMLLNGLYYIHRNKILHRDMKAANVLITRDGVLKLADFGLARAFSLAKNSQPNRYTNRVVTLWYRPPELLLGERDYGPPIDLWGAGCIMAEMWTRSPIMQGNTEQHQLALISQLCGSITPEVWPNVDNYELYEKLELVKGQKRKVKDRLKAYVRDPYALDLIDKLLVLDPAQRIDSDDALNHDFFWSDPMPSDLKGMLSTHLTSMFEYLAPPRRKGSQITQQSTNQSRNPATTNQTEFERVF
Chain of CDK9 (O60563 whole entry partner): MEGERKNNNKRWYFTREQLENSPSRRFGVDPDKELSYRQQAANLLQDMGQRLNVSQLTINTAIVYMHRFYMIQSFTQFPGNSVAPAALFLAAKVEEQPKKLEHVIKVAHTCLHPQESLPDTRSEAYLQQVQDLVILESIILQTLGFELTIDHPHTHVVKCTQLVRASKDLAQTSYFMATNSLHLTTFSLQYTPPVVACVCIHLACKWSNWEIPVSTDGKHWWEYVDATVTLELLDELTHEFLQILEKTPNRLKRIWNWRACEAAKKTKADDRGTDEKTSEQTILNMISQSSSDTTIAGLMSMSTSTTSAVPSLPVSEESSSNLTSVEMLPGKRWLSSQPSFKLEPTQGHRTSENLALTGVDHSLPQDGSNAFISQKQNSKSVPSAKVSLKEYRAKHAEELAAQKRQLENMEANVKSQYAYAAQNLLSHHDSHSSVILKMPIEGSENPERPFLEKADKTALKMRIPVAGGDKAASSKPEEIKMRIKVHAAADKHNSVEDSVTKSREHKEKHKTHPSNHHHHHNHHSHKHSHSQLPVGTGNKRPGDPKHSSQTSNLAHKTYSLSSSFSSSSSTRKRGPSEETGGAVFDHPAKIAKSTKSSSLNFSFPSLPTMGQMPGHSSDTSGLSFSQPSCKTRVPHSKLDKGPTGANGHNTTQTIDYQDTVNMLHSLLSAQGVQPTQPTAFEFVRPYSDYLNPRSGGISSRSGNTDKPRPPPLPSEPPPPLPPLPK

Description for CDK9: The in vitro CDK kinase inhibition assay was performed by Reaction Biology Corp. (PA, USA) (http://www.reactionbiology.com) Kinase HotSpotSM service.
Reaction Biology Corp. Kinase HotSpotSM service (http://www.reactionbiology.com)
was used for screening of tested compounds. CDK Kinase inhibitory activities were
assessed by the HotSpot assay platform, which contained specific kinase/substrate pairs
along with required cofactors. Base reaction buffer: 20 mM Hepes (pH 7.5), 10 mM MgCl2,
Testing compounds were dissolved in 100% DMSO to specific concentration. The serial
dilution was conducted by Integra Viaflo Assist in DMSO. The reaction mixture containing the examined compound and 33P-ATP was incubated at room temperature for
2 h and radioactivity was detected by filter-binding method. Kinase activity data were
expressed as the percent remaining kinase activity in test samples compared to vehicle
(dimethyl sulfoxide) reactions.

In general, IC50 refers to the concentration needed to halve the response being measured. For `Cc1ccc2c(c1)/C(=N/NC(=O)c1cc3ccccc3[nH]1)C(=O)N2` [6e], the IC50 in test [1] was 22.5 ± 1.67 µM. Moreover, in the test with MCF-7 cells, the “fold elevation in sub-G1 phase” value is 17.8 fold, the “fold increase of cells in G2/M phase” value is listed as 2.80 fold, the “%Sub-G1” value came out at 24.49% and the “%G2/M” value was determined as 41.47%. In addition, in the test on MCF-7 cells, the “%S” value came to 14.81% and the “%G0–G1” value came to 19.23%. For the same compound, on CDK9, the inhibition at 20 µM worked out at 18%.

Take `COc1ccc2c(c1)/C(=N/NC(=O)c1cc3ccccc3[nH]1)C(=O)N2` [6f]: in test [1], the 50% inhibitory concentration (IC50) came to 2.85 ± 0.9 µM. Moreover, the “fold potency compared to staurosporine” value in test [1] (MDA-MB-231, ratio of IC50 values) is reported as 3.6 fold. In the test with MCF-7 cells, the “fold elevation in sub-G1 phase” value was 16.25 fold, the “fold increase of cells in G2/M phase” value is 2.46 fold, the “%Sub-G1” value is given as 22.26% and the “%G2/M” value came to 36.26%. In addition, in the test with MCF-7 cells, the “%S” value was 19.29% and the “%G0–G1” value came out at 22.19%. The inhibition at 20 µM on CDK9 was 8%.

These data come from publication PMC7248897, “Synthesis, Biological Evaluation and In Silico Studies of Certain Oxindole–Indole Conjugates as Anticancer CDK Inhibitors” (Molecules, 2020).
